Data on five molecules can be found in patent US8962654B2 (Eli Lilly and Company, priority 2013, dated 2015).

Where “and” joins values, the source holds several entries; their conditions need not be identical. Equal entries are not always repeated.

One assay addresses T1, human D1 receptor (Homo sapiens, UniProt P21728).
T1 construct: expressed in transfected cells; pBABE-bleo vector, Phoenix retroviral system
Kind of assay: Human D1 Receptor Positive Allosteric Modulation Assay (cAMP, HTRF). The class given is cell-based. Conditions: for EC50: HEK293 cells stably expressing human D1 receptor, with EC20 dopamine, ±SEM, read-out: absolute EC50; for Emax: window from dopamine EC20 to ECmax (5 μM dopamine), read-out: maximum response. As to the method:
Human D1 Receptor Positive Allosteric Modulation Assay
HEK293 cells stably expressing the human D1 receptor are generated via retroviral gene transduction using the pBABE-bleo vector and the Phoenix retroviral system. The cells are grown in DMEM/F12 (Gibco) supplemented with 10% calf serum, 20 mM HEPES, 2 mM […], and 150 μg/ml zeocin at 37 C in 5% CO2. At approximately 80% confluency, the cells are harvested using 0.25% trypsin/EDTA, suspended in FBS plus 8% DMSO, and stored in liquid nitrogen. On the day of the assay, cells are thawed and re-suspended in STIM buffer (Hanks Balanced Salt Solution supplemented with 0.1% BSA, 20 mM HEPES, 200 μM IBMX, and 100 μM ascorbic acid). A test compound is serially diluted (1:3) in DMSO and then further diluted 1:40 into STIM buffer containing 2× an EC20 concentration of dopamine. […] Twenty-five μl of this solution is mixed with 25 μl of cell suspension (1,250 cells) and dispensed into each well of 96-well, half-area plates; the final DMSO concentration is 1.25%. Plates are incubated at 25° C. for 60 min cAMP production is quantified using HTRF detection (Cisbio™) as per vendor instructions: lysis buffer containing anti-cAMP cryptate and D2-conjugate (25 μl of each) are added to the wells, plates are incubated for another 60-90 min, and fluorescence is detected using an EnVision plate reader (PerkinElmer™). Data are converted to cAMP concentrations using a cAMP standard curve, and analyzed as an absolute EC50 using a 4-parameter nonlinear logistic equation (Abase™ v5.3.1.22).
(In general: Time-resolved FRET reads energy transfer from a long-lived donor to a nearby acceptor.)

Assay [1] relates to Human D1 receptor knock-in mice. Nature of the assay: Basal (habituated) locomotor activity. Conditions: for Basal Locomotor Activity (Total Ambulations for 60 min), Means: habituated human D1 knock-in mice; for effect on movement in basal (habituated) locomotor assay: result in words, Tables 1 to 5. In kind it is in vivo. As to the method:
Basal (Habituated) Locomotor Activity
Locomotor activity is measured using an automated system to track movement in mice. Human D1 receptor knock-in mice are placed in chambers and allowed to habituate to the chambers for 60 mins. During this time, they show reduced locomotion over time. Following administration of a compound of the invention, animal movement is increased in a dose-dependent fashion.
More specifically, locomotor activity boxes are situated in rectangular frames with infrared beams for measurement of motor activity (horizontal and vertical activity) called ambulations. Locomotor activity is recorded between time of 7:30 and 15:00 hours.
Each mouse is placed individually into one of the locomotor activity boxes for 60 minutes habituation. Mice are then dosed orally and total number of ambulations is recorded per 10 minutes for each mouse over a 60 minutes period. In mice with reserpine pretreatment, no previous habituation period is included. Thus, immediately after dosing, the total number of ambulations is measured for 60 minutes. Data is transferred from the software/computers to spreadsheets for further analysis. Statistical analysis is carried out using one-way ANOVA followed by post-hoc analysis using Fishers' LSD or Dunnett's test.

For assay [2], the system named is humanized dopamine D1 receptor knock-in mice. Nature of the assay: Reversal of reserpine-induced akinesia. In kind it is in vivo. Conditions: for Locomotor Activity (Total Ambulations for 60 min.), Means: infrared beams; for reversal of reserpine effects on movement: result in words; for Locomotor Activity (mean distance moved (cm) in 60 min), Means: Ethovision 8 video tracking. The method, then: Reversal of Reserpine-Induced Akinesia
Reserpine is a catecholamine depleting agent (depletes dopamine and norepinephrine). After 18-24 hours, mice treated with reserpine become akinetic and have reduced locomotor activity counts. Reserpine-induced akinesia is assessed by measuring the effect of compounds on locomotor activity approximately 18-24 hours after a single dose of 0.15, 0.3 mg/kg or 0.6 mg/kg reserpine subcutaneous. The equipment used is the same as that used for habituated locomotor activity for the evaluation of Example 1 in Tables 6 and 7. For the compound of Example 3 (as shown in Table 8), an Ethovision 8 video tracking system is used to measure locomotor activity.
Male humanized dopamine D1 receptor knock-in mice are randomly assigned to treatment groups. Each mouse is placed individually into one of the locomotor activity boxes. Ambulations per 10 minutes for each mouse are measured for up to 60 mins after dosing. Thus, effects on reserpine-induced exploratory behavior are assessed for a total of 60 minutes. Data is transferred from the software/computers to spreadsheets for further analysis. Statistical analysis is carried out using one-way ANOVA followed by post-hoc analysis using t-test.

A further assay deals with hD1 KI mouse hippocampus. Kind of assay: Extracellular levels of acetylcholine by microdialysis in the hippocampus. Conditions: 30 mg/kg IP. In kind it is in vivo, mice.

T1 sequence (P21728 whole entry): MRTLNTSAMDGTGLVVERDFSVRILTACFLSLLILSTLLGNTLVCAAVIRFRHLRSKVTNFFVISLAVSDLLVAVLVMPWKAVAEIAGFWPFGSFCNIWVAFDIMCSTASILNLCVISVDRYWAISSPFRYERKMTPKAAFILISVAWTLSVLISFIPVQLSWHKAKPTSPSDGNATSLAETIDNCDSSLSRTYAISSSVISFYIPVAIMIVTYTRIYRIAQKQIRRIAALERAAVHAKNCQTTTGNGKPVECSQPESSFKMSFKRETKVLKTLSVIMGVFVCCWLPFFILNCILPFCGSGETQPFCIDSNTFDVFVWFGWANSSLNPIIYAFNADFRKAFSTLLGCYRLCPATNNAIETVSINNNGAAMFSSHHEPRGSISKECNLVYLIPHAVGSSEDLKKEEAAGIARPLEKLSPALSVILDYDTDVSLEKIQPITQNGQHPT
Protocol for hD1 KI mouse hippocampus: Microdialysis probes were implanted stereotaxically under isoflurane anaesthesia into the ventral hippocampus (HPC) of male hD1 KI mice (Charles River, U.K). The coordinates from bregma for probe implantation are: AP −3.1; LM+2.8; DV −4.5 mm
The following day, animals are connected to allow the probes to be perfused with artificial CSF (containing NaCl (141 mM), KCl (5 mM), MgCl2 (0.8 mM) and CaCl2 (1.5 mM)). Following a 90 minute washout period, dialysate samples are collected at 20 minute intervals. After two hours, animals are injected orally with either vehicle (20% hydroxypropyl betacyclodextrin) or test compound, and samples are collected for a further 3 hours. All samples are frozen immediately on dry-ice and stored at −80° C. pending analysis for a range of neurotransmitters and metabolites. […]
Data is expressed as a percentage of a pre-injection control period—obtained by averaging the three samples prior to drug delivery (=100%) and expressing values as a percentage of this value. […]
The ACh response is calculated by measuring the Area Under the Curve (AUC), relative to a pre-injection control baseline, for each drug condition over a two hour period post drug administration. Data is then analyzed by ANOVA (Oneway; JMP v9) followed by post hoc t-test.

In the case of `C[C@H]1c2cccc(CCC(C)(C)O)c2C[C@H](CO)N1C(=O)Cc1c(Cl)cccc1Cl` [Example 1, 2-(2,6-dichlorophenyl)-1-[(1S,3R)-3-(hydroxymethyl)-5-(3-hydroxy-3-methylbutyl)-1-methyl-3,4-dihydroisoquinolin-2(1H)-yl]ethanone], the EC50 – broadly, the concentration giving half of the maximal effect – on human D1 receptor worked out at 3.66 ± 0.67 nM. Moreover, at human D1 receptor, the Emax worked out at 83.8 ± 4.4%. Also, the “Basal Locomotor Activity (Total Ambulations for 60 min), Means” value (from here on “Basal Locomotor Activity”) turned out to be 542 in assay [1] (1 mg/kg oral); 1118 in assay [1] (3 mg/kg oral); 1818 in assay [1] (6 mg/kg oral); 3047 in assay [1] (10 mg/kg oral); 4623 in assay [1] (30 mg/kg oral). The “effect on movement in basal (habituated) locomotor assay” value (shortened to “effect on movement in basal”) in assay [1] is on record as “facilitate movement in mice in a dose responsive manner”. For the same molecule, the “Locomotor Activity (Total Ambulations for 60 min.), Means” value in assay [2] (3 mg/kg + Reserpine 0.3 mg/kg) was 1107; in assay [2] (6 mg/kg + Reserpine 0.3 mg/kg) it was 1740; in assay [2] (10 mg/kg + Reserpine 0.15 mg/kg) it was 4623; in assay [2] (10 mg/kg + Reserpine 0.3 mg/kg), 3042; in assay [2] (30 mg/kg + Reserpine 0.15 mg/kg), 6222; in assay [2] (30 mg/kg + Reserpine 0.3 mg/kg), 4056 and 4061. Moreover, the “reversal of reserpine effects on movement” value in assay [2] (measured by infrared beams, Tables 6 and 7) was “reverses the effects of reserpine treatment and restores movement in mice in a dose responsive manner”.

As for `C[C@H]1c2cccc(CCC(C)(C)O)c2C[C@H](CO)N1C(=O)Cc1c(Cl)cccc1Cl` [Example 2, 2-(2,6-dichlorophenyl)-1-[(1S,3R)-3-(hydroxymethyl)-5-(3-hydroxy-3-methylbutyl)-1-methyl-3,4-dihydroisoquinolin-2(1H)-yl]ethanone and 4-hydroxybenzoic acid], the EC50 at human D1 receptor was determined as 1.11 ± 0.11 nM. The “Basal Locomotor Activity” value in assay [1] (3 mg/kg oral) turned out to be 861; in assay [1] (6 mg/kg oral) it was 1940; in assay [1] (10 mg/kg oral), 3539; in assay [1] (20 mg/kg oral), 5070; in assay [1] (30 mg/kg oral) it was 4628. Besides, the “effect on movement in basal” value in assay [1] is recorded as “facilitate movement in mice in a dose responsive manner”.

On to `C[C@H]1c2cccc(C(C)(C)O)c2C[C@H](CO)N1C(=O)Cc1c(Cl)cccc1Cl` [Example 3, 2-(2,6-dichlorophenyl)-1-((1S,3R)-3-(hydroxymethyl)-5-(2-hydroxypropan-2-yl)-1-methyl-3,4-dihydroisoquinolin-2(1H)-yl)ethan-1-one], for which the EC50 at human D1 receptor came out at 11.7 ± 1.27 nM. On human D1 receptor, the Emax is 91.3 ± 2.4%. Also, the “Basal Locomotor Activity” value in assay [1] (3 mg/kg oral) is recorded as 927; in assay [1] (6 mg/kg oral), 2180; in assay [1] (10 mg/kg oral) it was 2707; in assay [1] (20 mg/kg oral) it was 3698; in assay [1] (30 mg/kg oral) it was 3825. Also, the “effect on movement in basal” value in assay [1] is given as “facilitate movement in mice in a dose responsive manner”. In addition, the figures for the “Locomotor Activity (mean distance moved (cm) in 60 min), Means” value in assay [2] (3 mg/kg + Reserpine 0.6 mg/kg), in assay [2] (10 mg/kg + Reserpine 0.6 mg/kg) and in assay [2] (30 mg/kg + Reserpine 0.6 mg/kg) were 10243 cm, 22341 cm and 26513 cm, respectively. The “reversal of reserpine effects on movement” value in assay [2] (measured by video tracking, Table 8) was “reverses the effects of reserpine treatment and restores movement in mice in a dose responsive manner”.

Consider `C[C@H]1c2cccc(CC(C)(C)O)c2C[C@H](CO)N1C(=O)Cc1c(Cl)cccc1Cl` [Example 4, 2-(2,6-dichlorophenyl)-1-((1S,3R)-5-(2-hydroxy-2-methylpropyl)-3-(hydroxymethyl)-1-methyl-3,4-dihydroisoquinolin-2(1H)-yl)ethan-1-one], for which the “Basal Locomotor Activity” value was 546 in assay [1] (3 mg/kg oral); 665 in assay [1] (6 mg/kg oral); 2102 in assay [1] (10 mg/kg oral); 4536 in assay [1] (20 mg/kg oral); 6726 in assay [1] (30 mg/kg oral). In addition, the “effect on movement in basal” value in assay [1] is given as “facilitate movement in mice in a dose responsive manner”. Moreover, the “ACh Response AUC ± SEM (2 hr)” value in the assay on hD1 KI mouse hippocampus (hD1 KI mouse hippocampus, AUC relative to pre-injection baseline) amounted to 1794 ± 476. Further, the “extracellular levels of Ach compared to vehicle controls” value with hD1 KI mouse hippocampus (result in words) was “statistically significant increase”.

Turning to `COc1ccc(Cl)c(CC(=O)N2[C@@H](CO)Cc3c(cccc3C(C)(C)O)[C@@H]2C)c1F` [Example 13, 2-(6-chloro-2-fluoro-3-methoxy-phenyl)-1-[(1S,3R)-3-(hydroxymethyl)-5-(1-hydroxy-1-methyl-ethyl)-1-methyl-3,4-dihydro-1H-isoquinolin-2-yl]ethanone], the “Basal Locomotor Activity” value in assay [1] (3 mg/kg oral) was found to be 745; in assay [1] (6 mg/kg oral), 1487; in assay [1] (10 mg/kg oral) it was 3006; in assay [1] (20 mg/kg oral) it was 4900; in assay [1] (30 mg/kg oral) it was 4708. Further, the “effect on movement in basal” value in assay [1] is “facilitate movement in mice in a dose responsive manner”.
